Test results: publication PMC10144058, “New Hybrid Scaffolds Based on 5-FU/Curcumin: Synthesis, Cytotoxic, Antiproliferative and Pro-Apoptotic Effect” (Pharmaceutics, 2023)
Read-outs that look alike come from different tables or passages of the source.

How the values were obtained:
HaCaT cells = assay: Cell viability, sulforhodamine B (SRB) assay, non-malignant cells; format: cell-based; conditions: Homo sapiens
Method: (§1) SW480 (colon adenocarcinoma) and SW620 (derived metastatic) malignant cell lines, and the non-malignant lines HaCaT (human keratinocytes) and CHO-K1 (Chinese Hamster Ovary), were obtained from the European Collection of Authenticated Cell Cultures (ECACC, Porton Down, Salisbury, UK). The cells were maintained in Dulbecco’s Modified Eagle’s Medium (DMEM), supplemented with 10% equine serum previously inactivated at 56 °C, 1% penicillin/streptomycin, and 1% non-essential amino acids, and incubated at 37 °C in an atmosphere with 5% CO2. To carry out the experiments, the serum was diluted to 3% and additionally supplemented with […] insulin, […] transferrin, and 5 ng/mL selenium. Cells were used for experimentation when they reached 80–90% confluence, using a 1X trypsin enzymatic disintegration method. To avoid contamination by Mycoplasma spp., cell cultures were periodically analyzed by polymerase chain reaction (PCR).
(§2) Cell viability was evaluated with a sulforhodamine B (SRB) assay. This technique provides an index of protein contents in living and adherent cells, whose optical density can be related to cell concentration. Initially, 20,000 cells were seeded per well in 96-well culture plates. An initial adherence period of 24 h was performed at 37 °C, 5% CO2, and after this, the medium was replaced by another that contained the hybrid compounds in different concentrations. Then, the cells were left incubating for 24 and 48 h under the same conditions previously described. After the respective incubation times, the cells were fixed with trichloroacetic acid (50% v/v) for 1 h at 4 °C and stained with 0.4% (p/v) of SRB. Subsequently, washings with 1% acetic acid were carried out to eliminate possible nonspecific bindings, and after solubilization with 10 mM Tris-base, the absorbance was read at 492 nm in a microplate reader (Mindray MR-96A). All the experiments were carried out in triplicate.

SW480 cells [1] = assay: Cell viability, sulforhodamine B (SRB) assay; format: cell-based; conditions: Homo sapiens
Method: as §1, §2

SW620 cells [2] = assay: Mitochondrial membrane potential (DiOC6/PI, flow cytometry); format: cell-based, human; conditions: SW620, treated with IC50, 48 h
Method: (§3) The fluorescent dyes PI and DIOC6 (3,3’-dihexyloxacarbocyanine iodide) were used to observe the depolarization of the mitochondrial membrane as well as possible cell membrane damage. For this method, 250,000 cells/well were initially seeded in 6-well culture plates during a 24 h adherence period at 37 °C in a 5% CO2 atmosphere. […] After treatment, cells were obtained by mechanical disaggregation, stained with DiOC6 and PI, and incubated at room temperature for 30 min in the dark. Ten thousand events were analyzed by flow cytometry with excitation at 488 nm and emission detection with green (530/15 nm) and red (610/20 nm) filters.

SW480 cells [3] = assay: as above; format: cell-based, human; conditions: SW480, treated with IC50, 48 h
Method: as §3

SW480 cells [4] = assay: Cell death induction (Annexin-V/PI, flow cytometry); format: cell-based, human; conditions: SW480, treated with IC50, 48 h
Method: For this method, 250,000 cells/well were initially seeded in 6-well culture plates during a 24 h adherence period at 37 °C in a 5% CO2 atmosphere. […] After treatment, cells were obtained by mechanical disaggregation, resuspended in a solution with Annexin-V-FLUOS and PI, and incubated for 20 min in the dark before flow cytometry analysis.

SW620 cells [5] = assay: Cell cycle analysis (PI, flow cytometry); format: cell-based, human; conditions: SW620, treated with IC50 value, 48 h
Method: (§4) The method used for the recognition of cell cycle phases (G0/G1, S, G2/M) was based on staining with a fluorescent dye (propidium iodide—PI), as a direct relationship between fluorescence intensity and DNA content can be established. For this method, 250,000 cells/well were initially seeded in 6-well culture plates with an adherence period of 24 h at 37 °C in a 5% CO2 atmosphere. […] After treatment, cells were obtained by mechanical disaggregation, and the cell pellet was centrifuged and washed with a versene buffer. The cell pellet was fixed with 1.8 mL of cold 70% ethanol and kept at 4 °C overnight. Subsequently, two washes with a versene buffer were performed, and the pellet was resuspended in 300 µL of PBS containing 0.25 mg/mL of RNAsa and 0.1 mg/mL of PI. After a 30 min period of dark incubation, the fluorescence of 10,000 cells was analyzed using a FACS Canto II flow cytometer. The PI signal was analyzed with excitation at 488 nm using a sapphire laser, and fluorescence was detected at 610 nm. The data analysis was performed with FlowJo 10.8.1 software.

SW480 cells [6] = assay: Cell cycle analysis (PI, flow cytometry); format: cell-based, human; conditions: SW480, treated with IC50 value, 48 h
Method: as §4

[7] = system: caspase 3, caspase 7, caspase 8 and p53 in SW480 cells; assay: Apoptotic biomarkers (ELISA); format: cell-based, human; conditions: SW480, treated with IC50, 48 h, vs control
Method: (§5) To provide an approach to the possible molecular mechanisms through which the hybrid compounds induce an effect on the cell lines, different proteins related to the process of death by apoptosis were determined. For this method, 1,000,000 cells were initially seeded per Petri dish, with an adherence period of 24 h at 37 °C in a 5% CO2 atmosphere. […] Later, the consumed medium was discarded, and after the addition of the versene buffer, the cells were obtained by mechanical disaggregation. The cells were then lysed with a cell lysis buffer and centrifuged to obtain the supernatant, which was used to determine the biomarkers of interest by enzyme-linked immunosorbent assays. These ELISA kits were provided by Elabscience Biotechnology Co., Houston, TX, USA [26].

[8] = system: caspase 3, caspase 7, caspase 8 and p53 in SW620 cells; assay: Apoptotic biomarkers (ELISA); format: cell-based, human; conditions: SW620, treated with IC50, 48 h, vs control
Method: as §5

SW480 cells [9] = assay: Antiproliferative activity (SRB, 0-8 days); format: cell-based; conditions: Homo sapiens, read-out: Cell Viability (%) ± SE; for viability at 0.625 µM: SW480, 0.625 µM; for viability at 10 µM: SW480, 10 µM
Method: For this experiment, the same colorimetric method (SRB) from the evaluation of cell viability was used, although with some modifications. Initially, 2500 cells per well were seeded in 96-well culture plates, and a 24 h adherence period was performed at 37 °C in a 5% CO2 atmosphere. […] For this assay, incubation periods of 0, 2, 4, 6, and 8 days were used, and the fixation, staining, and reading conditions were the same as those previously described for the cytotoxicity assay.

IC50 (SW480 cells [1]; SW480, 24 h): 15.7 ± 1.91 µM
IC50 (SW480 cells [1]; SW480, 48 h): 2.43 ± 0.33 µM
Structure (SMILES): COc1cc(/C=C/C(=O)c2ccc(OCCCCCn3cc(Cn4cc(F)c(=O)[nH]c4=O)nn3)cc2)ccc1O [Compound 6d, (E)-5-fluoro-1-((1-(5-(4-(3-(4-hydroxy-3-methoxyphenyl)acryloyl)phenoxy)pentyl)-1H-1,2,3-triazol-4-yl)methyl)pyrimidine-2,4(1H,3H)-dione]
IC50 (HaCaT cells; 24 h): 42.6 ± 6.93 µM
IC50 (HaCaT cells; 48 h): 20.3 ± 2.66 µM
Dioc6 High population (live cells with high membrane polarization) (SW620 cells [2]): 19.2%
Dioc6 Low population (cells that lose membrane polarization) (SW620 cells [2]): 0.11%
PI+ population (membrane damage or dead cells) (SW620 cells [2]): 76.1%
changes in the mitochondrial membrane potential (SW620 cells [2]): do not induce significant changes
Dioc6 High population (live cells with high membrane polarization) (SW480 cells [3]): 76.2%
Dioc6 Low population (cells that lose membrane polarization) (SW480 cells [3]): 0%
PI+ population (membrane damage or dead cells) (SW480 cells [3]): 23.7%
changes in the mitochondrial membrane potential (SW480 cells [3]): do not induce significant changes
Annexin V/PI quadrant Q3 (early apoptotic cells) (SW480 cells [4]): 50.2%
Cell cycle distribution, G0/G1 (SW620 cells [5]): 4.4%
Cell cycle distribution, G2/M (SW620 cells [5]): 11.0%
Cell cycle distribution, S Phase (SW620 cells [5]): 24.7%
Cell cycle distribution, G0/G1 (SW480 cells [6]): 42.9%
Cell cycle distribution, G2/M (SW480 cells [6]): 10.1%
Cell cycle distribution, S Phase (SW480 cells [6]): 20.0%
Cell cycle distribution, Sub G0/G1 (SW480 cells [6]): 24.1%
levels of biomarkers (caspase 3, caspase 7, caspase 8, p53) [7]: no significant differences
levels of biomarkers (caspase 3, caspase 7, caspase 8, p53) [8]: no significant differences
viability at 0.625 µM (SW480 cells [9]; 48 h, 2 days after plating): 90.1 ± 1.45%
viability at 10 µM (SW480 cells [9]; 48 h, 2 days after plating): 7.35 ± 1.45%
viability at 0.625 µM (SW480 cells [9]; 96 h, 4 days after plating): 55.5 ± 2.21%
viability at 10 µM (SW480 cells [9]; 96 h, 4 days after plating): 0.75 ± 0.2%
viability at 0.625 µM (SW480 cells [9]; 144 h, 6 days after plating): 46.36 ± 0.18%
viability at 10 µM (SW480 cells [9]; 144 h, 6 days after plating): 0.68 ± 0.14%
viability at 0.625 µM (SW480 cells [9]; 192 h, 8 days after plating): 32.3 ± 0.77%
viability at 10 µM (SW480 cells [9]; 192 h, 8 days after plating): 0%
